Laboratory results as given in patent publication US11395857B2, “Radiolabeled melanocortin 1 receptor-specific alpha-melanocyte-stimulating hormone analogues for imaging or therapy” (PROVINCIAL HEALTH SERVICES AUTHORITY, priority 2018, dated 2022).
Where two headings read alike, the source gives them in different places.

Experiments:
[1] = Biodistribution of 177Lu-labeled αMSH analogues in mice bearing B16F10 mouse melanoma; assay type: in vivo, C57BL/6J mice; conditions: mouse, iv, total radioactivity, C57BL/6J mice, B16F10 melanoma
Protocol: (§1) The B16-F10 mouse melanoma cells were cultured and inoculated in mice as described in Example 1.
(§2) For biodistribution studies, approximately 1-2 MBq of ^177Lu-labeled αMSH analogues via tail vein under anesthesia. At 1, 4, 24, and 120 h p.i., the mice were euthanized by CO2 inhalation. Organs/tissues were harvested and the radioactivity was measured as described in Example 1.

B16F10 mouse melanoma = assay: as above; assay type: in vivo, C57BL/6J mice; conditions: C57BL/6J mice, B16F10 melanoma
Protocol: as §1, §2

tissue uptake at 1 h ([1]; male, seminal glands, 1 h p.i., read-out: Biodistribution, Seminal glands): 0.06 ± 0.02 %ID/g
tissue uptake at 4 h ([1]; male, seminal glands, 4 h p.i., read-out: Biodistribution, Seminal glands): 0.02 %ID/g
tissue uptake at 24 h ([1]; male, seminal glands, 24 h p.i., read-out: Biodistribution, Seminal glands): 0.01 %ID/g
tissue uptake at 1 h ([1]; male, testes, 1 h p.i., read-out: Biodistribution, Testes): 0.13 ± 0.02 %ID/g
tissue uptake at 4 h ([1]; male, testes, 4 h p.i., read-out: Biodistribution, Testes): 0.03 %ID/g
tissue uptake at 24 h ([1]; male, testes, 24 h p.i., read-out: Biodistribution, Testes): 0.03 %ID/g
tissue uptake at 120 h ([1]; male, testes, 120 h p.i., read-out: Biodistribution, Testes): 0.02 ± 0.01 %ID/g
tissue uptake at 1 h ([1]; adrenal glands, 1 h p.i., read-out: Biodistribution, Adrenal glands): 0.39 ± 0.13 %ID/g
tissue uptake at 4 h ([1]; adrenal glands, 4 h p.i., read-out: Biodistribution, Adrenal glands): 0.19 ± 0.06 %ID/g
tissue uptake at 24 h ([1]; adrenal glands, 24 h p.i., read-out: Biodistribution, Adrenal glands): 0.1 ± 0.04 %ID/g
tissue uptake at 120 h ([1]; adrenal glands, 120 h p.i., read-out: Biodistribution, Adrenal glands): 0.03 ± 0.03 %ID/g
tissue uptake at 1 h ([1]; blood, 1 h p.i., read-out: Biodistribution, Blood): 0.48 ± 0.22 %ID/g
tissue uptake at 4 h ([1]; blood, 4 h p.i., read-out: Biodistribution, Blood): 0.05 ± 0.01 %ID/g
tissue uptake at 24 h ([1]; blood, 24 h p.i., read-out: Biodistribution, Blood): 0.01 %ID/g
tissue uptake at 1 h ([1]; bone, 1 h p.i., read-out: Biodistribution, Bone): 0.13 ± 0.03 %ID/g
tissue uptake at 4 h ([1]; bone, 4 h p.i., read-out: Biodistribution, Bone): 0.06 ± 0.02 %ID/g
tissue uptake at 24 h ([1]; bone, 24 h p.i., read-out: Biodistribution, Bone): 0.04 ± 0.01 %ID/g
tissue uptake at 120 h ([1]; bone, 120 h p.i., read-out: Biodistribution, Bone): 0.02 ± 0.01 %ID/g
tissue uptake at 1 h ([1]; brain, 1 h p.i., read-out: Biodistribution, Brain): 0.02 %ID/g
tissue uptake at 4 h ([1]; brain, 4 h p.i., read-out: Biodistribution, Brain): 0.01 %ID/g
tissue uptake at 1 h ([1]; fat, 1 h p.i., read-out: Biodistribution, Fat): 0.06 ± 0.02 %ID/g
tissue uptake at 4 h ([1]; fat, 4 h p.i., read-out: Biodistribution, Fat): 0.01 %ID/g
tissue uptake at 24 h ([1]; fat, 24 h p.i., read-out: Biodistribution, Fat): 0.01 %ID/g
tissue uptake at 120 h ([1]; fat, 120 h p.i., read-out: Biodistribution, Fat): 0.01 %ID/g
tissue uptake at 1 h ([1]; heart, 1 h p.i., read-out: Biodistribution, Heart): 0.17 ± 0.06 %ID/g
tissue uptake at 4 h ([1]; heart, 4 h p.i., read-out: Biodistribution, Heart): 0.04 ± 0.01 %ID/g
tissue uptake at 24 h ([1]; heart, 24 h p.i., read-out: Biodistribution, Heart): 0.03 %ID/g
tissue uptake at 120 h ([1]; heart, 120 h p.i., read-out: Biodistribution, Heart): 0.02 %ID/g
tissue uptake at 1 h ([1]; intestine, 1 h p.i., read-out: Biodistribution, Intestine): 0.25 ± 0.03 %ID/g
tissue uptake at 4 h ([1]; intestine, 4 h p.i., read-out: Biodistribution, Intestine): 0.12 ± 0.06 %ID/g
tissue uptake at 24 h ([1]; intestine, 24 h p.i., read-out: Biodistribution, Intestine): 0.23 ± 0.28 %ID/g
tissue uptake at 120 h ([1]; intestine, 120 h p.i., read-out: Biodistribution, Intestine): 0.12 ± 0.16 %ID/g
tissue uptake at 1 h ([1]; kidneys, 1 h p.i., read-out: Biodistribution, Kidneys): 4.15 ± 0.99 %ID/g
tissue uptake at 4 h ([1]; kidneys, 4 h p.i., read-out: Biodistribution, Kidneys): 4.32 ± 2.06 %ID/g
tissue uptake at 24 h ([1]; kidneys, 24 h p.i., read-out: Biodistribution, Kidneys): 1.61 ± 0.29 %ID/g
tissue uptake at 120 h ([1]; kidneys, 120 h p.i., read-out: Biodistribution, Kidneys): 0.5 ± 0.02 %ID/g
tissue uptake at 1 h ([1]; liver, 1 h p.i., read-out: Biodistribution, Liver): 0.41 ± 0.11 %ID/g
tissue uptake at 4 h ([1]; liver, 4 h p.i., read-out: Biodistribution, Liver): 0.34 ± 0.1 %ID/g
tissue uptake at 24 h ([1]; liver, 24 h p.i., read-out: Biodistribution, Liver): 0.32 ± 0.13 %ID/g
tissue uptake at 120 h ([1]; liver, 120 h p.i., read-out: Biodistribution, Liver): 0.19 ± 0.02 %ID/g
tissue uptake at 1 h ([1]; lungs, 1 h p.i., read-out: Biodistribution, Lungs): 0.54 ± 0.2 %ID/g
tissue uptake at 4 h ([1]; lungs, 4 h p.i., read-out: Biodistribution, Lungs): 0.17 ± 0.06 %ID/g
tissue uptake at 24 h ([1]; lungs, 24 h p.i., read-out: Biodistribution, Lungs): 0.07 ± 0.02 %ID/g
tissue uptake at 120 h ([1]; lungs, 120 h p.i., read-out: Biodistribution, Lungs): 0.04 ± 0.01 %ID/g
tissue uptake at 1 h ([1]; muscle, 1 h p.i., read-out: Biodistribution, Muscle): 0.1 ± 0.04 %ID/g
tissue uptake at 4 h ([1]; muscle, 4 h p.i., read-out: Biodistribution, Muscle): 0.02 %ID/g
tissue uptake at 24 h ([1]; muscle, 24 h p.i., read-out: Biodistribution, Muscle): 0.01 %ID/g
tissue uptake at 120 h ([1]; muscle, 120 h p.i., read-out: Biodistribution, Muscle): 0.01 %ID/g
tissue uptake at 1 h ([1]; pancreas, 1 h p.i., read-out: Biodistribution, Pancreas): 0.13 ± 0.05 %ID/g
tissue uptake at 4 h ([1]; pancreas, 4 h p.i., read-out: Biodistribution, Pancreas): 0.03 ± 0.01 %ID/g
tissue uptake at 24 h ([1]; pancreas, 24 h p.i., read-out: Biodistribution, Pancreas): 0.03 %ID/g
tissue uptake at 120 h ([1]; pancreas, 120 h p.i., read-out: Biodistribution, Pancreas): 0.02 %ID/g
tissue uptake at 1 h ([1]; spleen, 1 h p.i., read-out: Biodistribution, Spleen): 0.24 ± 0.08 %ID/g
tissue uptake at 4 h ([1]; spleen, 4 h p.i., read-out: Biodistribution, Spleen): 0.13 ± 0.04 %ID/g
tissue uptake at 24 h ([1]; spleen, 24 h p.i., read-out: Biodistribution, Spleen): 0.12 ± 0.02 %ID/g
tissue uptake at 120 h ([1]; spleen, 120 h p.i., read-out: Biodistribution, Spleen): 0.07 ± 0.01 %ID/g
tissue uptake at 1 h ([1]; stomach, 1 h p.i., read-out: Biodistribution, Stomach): 0.13 ± 0.02 %ID/g
tissue uptake at 4 h ([1]; stomach, 4 h p.i., read-out: Biodistribution, Stomach): 0.59 ± 1.14 %ID/g
tissue uptake at 24 h ([1]; stomach, 24 h p.i., read-out: Biodistribution, Stomach): 0.53 ± 0.48 %ID/g
tissue uptake at 120 h ([1]; stomach, 120 h p.i., read-out: Biodistribution, Stomach): 0.12 ± 0.16 %ID/g
tissue uptake at 1 h ([1]; thyroid, 1 h p.i., read-out: Biodistribution, Thyroid): 0.22 ± 0.09 %ID/g
tissue uptake at 4 h ([1]; thyroid, 4 h p.i., read-out: Biodistribution, Thyroid): 0.07 ± 0.01 %ID/g
tissue uptake at 24 h ([1]; thyroid, 24 h p.i., read-out: Biodistribution, Thyroid): 0.06 ± 0.01 %ID/g
tissue uptake at 120 h ([1]; thyroid, 120 h p.i., read-out: Biodistribution, Thyroid): 0.05 ± 0.01 %ID/g
excreta dose per gram or mL at 1 h ([1]; urine, 1 h p.i.): 227 ± 115 %ID/g
excreta dose per gram or mL at 4 h ([1]; urine, 4 h p.i.): 49.1 ± 39.7 %ID/g
excreta dose per gram or mL at 24 h ([1]; urine, 24 h p.i.): 0.46 ± 0.31 %ID/g
excreta dose per gram or mL at 120 h ([1]; urine, 120 h p.i.): 0.09 ± 0.06 %ID/g
Biodistribution, B16F10 tumour (B16F10 mouse melanoma; 1 h p.i.): 4.49 ± 1.89 % ID/g
Biodistribution, B16F10 tumour (B16F10 mouse melanoma; 4 h p.i.): 4.42 ± 0.64 % ID/g
Biodistribution, B16F10 tumour (B16F10 mouse melanoma; 24 h p.i.): 2.04 ± 0.46 % ID/g
Biodistribution, Brain (B16F10 mouse melanoma; 24 h p.i.): 0.00 ± 0.00 % ID/g
Biodistribution, B16F10 tumour (B16F10 mouse melanoma; 120 h p.i.): 0.49 ± 0.30 % ID/g
Biodistribution, Blood (B16F10 mouse melanoma; 120 h p.i.): 0.00 ± 0.00 % ID/g
Biodistribution, Brain (B16F10 mouse melanoma; 120 h p.i.): 0.00 ± 0.00 % ID/g
Biodistribution, Seminal glands (B16F10 mouse melanoma; 120 h p.i.): 0.00 ± 0.00 % ID/g
SMILES: CCCC[C@H](NC(=O)CN1CCC(NC(=O)CN2CCN(CC(=O)O)CCN(CC(=O)O)CCN(CC(=O)O)CC2)CC1)C(=O)N[C@H]1CC(=O)NCCCC[C@@H](C(N)=O)N(C)C(=O)[C@H](Cc2c[nH]c3ccccc23)N(C)C(=O)[C@H](CCCNC(=N)N)N(C)C(=O)[C@@H](Cc2ccccc2)NC(=O)[C@H](Cc2c[nH]cn2)N(C)C1=O [^177Lu-labeled CCZ01099, metal not drawn]
